In publication PMC12845078 (Pharmaceuticals, 2025):
Marks after values point to notes of the source that are not given here.

How the values were obtained:
[1] = Pharmacokinetics of MT, 6-HMT and CBD in SD rats (i.v. and oral); settings: rats
Protocol: The drugs were dissolved in the same manner as described previously, with an administration volume of 5 mL/kg for all groups. Blood samples were collected at the time points of pre-administration and 0.033 (only for the intravenous administration group), 0.083, 0.25, 0.5, 0.75, 1, 1.5, 2, 4, 6, 8, and 12 h post-administration.
(§1) The column temperature was set at 40 °C.

[2] = Pharmacokinetics of MT, 6-HMT and CBD in beagles after oral administration; settings: beagles, p.o.
Protocol: Twelve male healthy adult beagles (weighing 10 ± 2 kg) were randomly divided into two groups. […] The drugs were dissolved in a physiological saline solution containing 5% castor oil, with an administration volume of 2 mL/kg. Blood samples were collected at the time points of pre-administration and 0.083, 0.25, 0.5, 0.75, 1, 1.5, 2, 4, 6, 8, and 12 h post-administration.
as §1

[3] = Pharmacokinetics of MT and CBD in rats after pre-administration of ABT; settings: both groups after ABT co-administration, all sampling time points; below lower limit of quantification
Protocol: Twelve SD rats were randomly divided into two groups. Both groups were first given an intragastric administration of 1-aminobenzotriazole (ABT) at a dose of 200 mg/kg. […] The administration volume for all groups was 5 mL/kg. […] Approximately 50 μL of venous blood were collected into heparin sodium anticoagulant tubes and placed on ice. The sample processing and storage methods were the same as described previously.
Subsequently, the resultant mixture was vortexed for 1 minute and centrifuged at 4 °C for 10 min at 18,800× g. […] The lowest limit of quantification (LLOQ) was established at 2 ng/mL.
Kromasil 100-5-C8 (2.1 × 50 mm) was selected for the separation of samples. The mobile phase consisted of solvent A (water with 0.1% formic acid and 5 mM ammonium acetate) and solvent B (methanol with 0.1% formic acid). […] The column temperature was set at 40 °C. The two eluents were 0.1% formic acid and 5 mM ammonium acetate in water (A) and 0.1% formic acid in methanol (B). […] The main mass spectrometry detection parameters were: dry gas 10 L/min, heated gas 10 L/min, collision gas 270 kPa, ion source temperature 300 °C, desolvation temperature 250 °C, and heating module temperature 400 °C.
Pharmacokinetic parameters: GraphPad Prism 10.1 software was utilized to draw the curves. Noncompartmental analysis was selected to calculate the major PK parameters, including clearance (CL), volume (V), half-life (t1/2), peak concentration (Cmax), and area under the curve (AUC), using WinNonlin 8.1.

## COc1cc2c(CCNC(C)=O)c[nH]c2cc1O [6-HMT, 6-Hydroxymelatonin]
[1]; i.v., MT + CBD (1 + 1) mg/kg
  AUC(0–t): 33.63 (5.10) h × ng/mL
  MRT(0–t): 0.38 (0.06) h
  t1/2: 0.28 (0.04) h
[1]; p.o., MT + CBD (5 + 5) mg/kg
  AUC(0–1h): 77.02 (26.81) h × ng/mL
  AUC(0–t): 110.2 (39.21) h × ng/mL
  Cmax: 125.1 (33.41) ng/mL
  MRT(0–t): 0.88 (0.11) h
  Tmax: 0.33 (0.13) h
  t1/2: 1.72 (1.48) h
[1]; p.o., MT + CBD (5 + 20) mg/kg
  AUC(0–1h): 48.98 (8.27) ** h × ng/mL
  AUC(0–t): 123.2 (15.77) h × ng/mL
  Cmax: 64.17 (10.40) ** ng/mL
  MRT(0–t): 2.37 (0.38) ** h
  Tmax: 0.33 (0.20) h
  t1/2: 3.41 (1.90) h
[1]; p.o., MT + Vehicle 5 mg/kg
  AUC(0–1h): 90.04 (26.46) h × ng/mL
  AUC(0–t): 125.2 (21.64) h × ng/mL
  Cmax: 145.6 (40.82) ng/mL
  MRT(0–t): 1.41 (0.59) h
  Tmax: 0.25 (0) h
  t1/2: 1.56 (0.90) h
[2]; MT + CBD (3 + 3) mg/kg
  AUC(0–t): 192.4 (72.83) h × ng/mL
  AUC(0–∞): 245.7 (69.0) h × ng/mL
  Cmax: 62.9 (18.18) ng/mL
  MRT(0–t): 2.94 (0.83) h
  Tmax: 0.58 (0.20) h
  t1/2: 4.11 (1.69) h
[2]; MT + CBD (3 + 3) mg/kg vs MT 3 mg/kg
  ratio of AUC(0–t),6-HMT to AUC(0–t),MT with CBD, as percent of MT alone: 26%
[2]; MT + Vehicle 3 mg/kg
  AUC(0–t): 179.7 (36.31) h × ng/mL
  AUC(0–∞): 202.1 (46.02) h × ng/mL
  Cmax: 74.80 (10.94) ng/mL
  MRT(0–t): 3.60 (0.81) h
  Tmax: 0.29 (0.10) h
  t1/2: 3.33 (1.11) h
[3]
  plasma concentration: < 2 ng/mL
